According to ChEMBL document CHEMBL5042526, “Design, Synthesis, and Biological Evaluation of Triazolone Derivatives as Potent PPARα/δ Dual Agonists for the Treatment of Nonalcoholic Steatohepatitis” (J Med Chem, 2022):
The source made the active and inactive calls. The rule behind the calls is not given here.

Legend:
[1] = test system: HepG2; test: Agonist activity against PPARalpha/delta (unknown origin) assessed as upregulation of PDK4 mRNA expression in human HepG2 cells incubated for 12 hrs by RT-PCR analysis; type: cell-based; settings: filed as agonist, dose 8-200 nM
[2] = test system: HepG2; test: Agonist activity against PPARalpha/delta (unknown origin) assessed as upregulation of ACADVL mRNA expression in human HepG2 cells at 8 nM incubated for 12 hrs by RT-PCR analysis; type: cell-based; settings: filed as agonist
[3] = test system: Mus musculus; test: In vivo agonist activity at PPARalpha/delta assessed as upregulation of Cdkn1a mRNA expression in C57BL/6Nifdc mouse liver at 10 mg/kg, po for 4 days; type: functional, organism-based; settings: time 4.0 day
[4] = test system: Mus musculus; test: In vivo agonist activity at PPARalpha/delta assessed as upregulation of Acox1 mRNA expression in C57BL/6Nifdc mouse liver at 10 mg/kg, po for 4 days; type: functional, organism-based; settings: time 4.0 day
[5] = test system: Mus musculus; test: In vivo agonist activity at PPARalpha/delta assessed as upregulation of Acadm-mRNA expression in C57BL/6Nifdc mouse liver at 10 mg/kg, po for 4 days; type: functional, organism-based; settings: time 4.0 day
[6] = test system: Mus musculus; test: In vivo agonist activity against PPARalpha/delta assessed as upregulation of Hilpda-mRNA expression in C57BL/6Nifdc mouse liver at 10 mg/kg, po for 4 days; type: functional, organism-based; settings: time 4.0 day
[7] = test system: Mus musculus; test: In vivo agonist activity against PPARalpha/delta assessed as upregulation of Pdk4 mRNA expression in C57BL/6Nifdc mouse liver at 10 mg/kg, po for 4 days; type: functional, organism-based; settings: time 4.0 day
[8] = test system: Mus musculus; test: In vivo agonist activity against PPARalpha/delta assessed as upregulation of Cd36 mRNA expression in C57BL/6Nifdc mouse liver at 10 mg/kg, po for 4 days; type: functional, organism-based; settings: time 4.0 day
[9] = test system: Mus musculus; test: In vivo agonist activity against PPARalpha/delta assessed as upregulation of Abcg2 mRNA expression in C57BL/6Nifdc mouse liver at 10 mg/kg, po for 4 days; type: functional, organism-based; settings: time 4.0 day
[10] = test system: Mus musculus; test: In vivo agonist activity against PPARalpha/delta assessed as upregulation of Vnn1 mRNA expression in C57BL/6Nifdc mouse liver at 10 mg/kg, po for 4 days; type: functional, organism-based; settings: time 4.0 day
[11] = test system: Mus musculus; test: In vivo agonist activity against PPARalpha/delta assessed as upregulation of Hadn-mRNA expression in C57BL/6Nifdc mouse liver at 10 mg/kg, po for 4 days; type: functional, organism-based; settings: time 4.0 day
[12] = test system: Mus musculus; test: In vivo agonist activity against PPARalpha/delta assessed as upregulation of Abca1 mRNA expression in C57BL/6Nifdc mouse skeletal muscle at 10 mg/kg, po for 4 days; type: functional, organism-based; settings: time 4.0 day
[13] = test system: Mus musculus; test: In vivo agonist activity against PPARalpha/delta assessed as upregulation of Cpt1b mRNA expression in C57BL/6Nifdc mouse skeletal muscle at 10 mg/kg, po for 4 days; type: functional, organism-based; settings: time 4.0 day
[14] = test system: Mus musculus; test: In vivo agonist activity against PPARalpha/delta assessed as upregulation of -Mlycd mRNA expression in C57BL/6Nifdc mouse skeletal muscle at 10 mg/kg, po for 4 days; type: functional, organism-based; settings: time 4.0 day
[15] = test system: Mus musculus; test: In vivo agonist activity against PPARalpha/delta assessed as upregulation of Ucp3 mRNA expression in C57BL/6Nifdc mouse skeletal muscle at 10 mg/kg, po for 4 days; type: functional, organism-based; settings: time 4.0 day
[16] = test system: Mus musculus; test: In vivo agonist activity against PPARalpha/delta assessed as upregulation of Angptl4 mRNA expression in C57BL/6Nifdc mouse skeletal muscle at 10 mg/kg, po for 4 days; type: functional, organism-based; settings: time 4.0 day
[17] = test system: Mus musculus; test: In vivo agonist activity against PPARalpha/delta assessed as upregulation of […] mRNA expression in C57BL/6Nifdc mouse skeletal muscle at 10 mg/kg, po for 4 days; type: functional, organism-based; settings: time 4.0 day
[18] = target: T1, Nuclear receptor subfamily 1 group I member 2 (Homo sapiens, UniProt O75469); test: Agonist activity at human PXR (138 to 434 residues) in Cos7 cells transfected with LBD-Gal4 and pGL435 Gal4 UAS Luc reporter plasmid at 10 uM by reporter gene assay; type: cell-based; settings: cos7, 10 µM
T1 sequence (O75469 whole entry): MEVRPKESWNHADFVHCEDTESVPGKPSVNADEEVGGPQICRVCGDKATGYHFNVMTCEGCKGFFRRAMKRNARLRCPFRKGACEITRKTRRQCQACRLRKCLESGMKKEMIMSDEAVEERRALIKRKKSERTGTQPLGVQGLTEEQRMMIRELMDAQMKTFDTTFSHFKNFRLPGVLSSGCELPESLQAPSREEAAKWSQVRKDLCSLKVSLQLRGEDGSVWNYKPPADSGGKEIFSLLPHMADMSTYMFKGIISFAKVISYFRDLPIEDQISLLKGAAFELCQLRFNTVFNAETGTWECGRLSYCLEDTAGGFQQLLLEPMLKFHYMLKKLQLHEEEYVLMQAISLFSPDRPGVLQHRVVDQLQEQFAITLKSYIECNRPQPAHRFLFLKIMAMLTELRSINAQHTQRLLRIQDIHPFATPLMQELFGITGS

[19] = test system: Mus musculus; test: Anti-NASH activity in HF-CDAA-induced nonalcoholic steatohepatitis C57BL/6JNifdc mouse model assessed as lipid drop size at 3 to 30 mg/kg, po by H and E staining method; type: functional, organism-based; settings: dose 3-30 mg/kg
[20] = test system: Mus musculus; test: Anti-NASH activity in HF-CDAA-induced nonalcoholic steatohepatitis C57BL/6JNifdc mouse model assessed as decrease in level of serum ALT 10 mg/kg, po by automatic biochemical analysis; type: functional, organism-based
[21] = test system: Mus musculus; test: Anti-inflammatory activity in HF-CDAA-induced nonalcoholic steatohepatitis C57BL/6JNifdc mouse model assessed as decrease in Adgre1 mRNA expression at 10 mg/kg, po; type: functional, organism-based
[22] = test system: Mus musculus; test: Anti-fibrosis effect in HF-CDAA-induced nonalcoholic steatohepatitis C57BL/6JNifdc mouse model assessed as expression of Col1a1 marker at 10 mg/kg, po after 20 hrs by Western blot analysis; type: functional, organism-based
[23] = test system: Mus musculus; test: Anti-fibrosis effect in CCl4 induced liver fibrosis C57BL/6JNifdc mouse model assessed as decrease in level of hydroxyproline level at 3 to 30 mg/kg, po after 20 hrs […]; type: functional, organism-based; settings: dose 3-30 mg/kg
[24] = test system: Mus musculus; test: Anti-fibrosis effect in CCl4 induced liver fibrosis C57BL/6JNifdc mouse model assessed as downregulation of alpha-SMA expression at 3 to 30 mg/kg, po after 20 hrs by Western blot analysis; type: functional, organism-based; settings: dose 3-30 mg/kg
[25] = test system: AML12; test: Agonist activity against PPARalpha/delta (unknown origin) assessed as upregulation of ACADVL mRNA expression in […] cells incubated for 12 hrs by RT-PCR analysis; type: cell-based; settings: filed as agonist, dose 8-200 nM
[26] = test system: AML12; test: Agonist activity against PPARalpha/delta (unknown origin) assessed as upregulation of Pdk4 mRNA expression in […] cells incubated for 12 hrs by RT-PCR analysis; type: cell-based; settings: filed as agonist, dose 8-200 nM
[27] = test system: C2C12; test: Agonist activity against PPARalpha/delta (unknown origin) assessed as upregulation of Cpt1A mRNA expression in […] cells incubated for 12 hrs by RT-PCR analysis; type: cell-based; settings: filed as agonist, dose 8-200 nM
[28] = test system: C2C12; test: Agonist activity against PPARalpha/delta (unknown origin) assessed as upregulation of Angpt14 mRNA expression in […] cells incubated for 12 hrs by RT-PCR analysis; type: cell-based; settings: filed as agonist, dose 8-200 nM
[29] = test system: AML12; test: Agonist activity against PPARalpha/delta (unknown origin) assessed as upregulation of Pdk4 mRNA expression in […] cells at 8 nM incubated for 12 hrs by RT-PCR analysis; type: cell-based; settings: filed as agonist

With `Cc1cc(Cn2ncn(-c3ccc(OC(F)(F)F)cc3)c2=O)cc(C)c1OC(C)(C)C(=O)O` the Activity [1] was “Dose-Dependent Effect”, the Activity [2] was “Active” and the Activity [3] was “Active”. For the same molecule, the Activity [4] was “Active”, the Activity [5] was “Active” and the Activity [6] was “Active”. The Activity [7] was “Active”, the Activity [8] was “Active” and the Activity [9] was “Active”. For the same molecule, the Activity [10] was “Active”, the Activity [11] was “Active” and the Activity [12] was “Active”. The Activity [13] was “Active”, the Activity [14] was “Active” and the Activity [15] was “Active”. The Activity [16] was “Active”, the Activity [17] was “Active” and the Activity [18] was “Not Active”. For the same molecule, the Activity [19] was “Active”, the Activity [20] was “Active” and the Activity [21] was “Active”. The Activity [22] was “Active”, the Activity [23] was “Active” and the Activity [24] was “Active”. For the same molecule, the Activity [25] was “Dose-Dependent Effect”, the Activity [26] was “Dose-Dependent Effect” and the Activity [27] was “Dose-Dependent Effect”. The Activity [28] was “Dose-Dependent Effect” and the Activity [29] was “Active”.
